System: NCI-H1417 complex spheroids, growth % test/control
Assay: Anticancer human tumor NCI-H1417 cell line growth inhibition [Asc];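 further: spheroids exposed to compounds for 7 days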;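 on viability, T/C: 100% = DMSO vehicle control wells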
Details: for IC50: curve of first compound; for viability, T/C: stronger effect = lower value
Method in brief: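 Stromal components (HUVEC and hMSC) are co-assembled with the cancer cells into multicellular spheroids. Drugs are then added singly or paired, at concentrations falling by half-log increments from a clinically achievable maximum, capped at 10 microM without known Cmax.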

`NC1CCC(NC2CC2c2ccccc2)CC1` (stereo not given) + CCN1C(C(=O)NC23CCC(C(=O)O)(CC2)CC3)C(c2cccc(Cl)c2F)C2(C(=O)Nc3cc(Cl)ccc32)C12CCCCC2 was tested, and the IC50 (second compound 0.03 µM) was > 100 nM, the IC50 (second compound 0.0949 µM) was > 100 nM and the IC50 (second compound 0.3 µM) was > 100 nM. The IC50 (second compound 0.949 µM) was > 100 nM, the IC50 (second compound 3 µM) was > 100 nM and the viability, T/C (second compound 0.03 µM, first compound 0.000316 µM) was 86%. It also gave a viability, T/C (second compound 0.03 µM, first compound 0.001 µM) of 73.9%, a viability, T/C (second compound 0.03 µM, first compound 0.00316 µM) of 74.5% and a viability, T/C (second compound 0.03 µM, first compound 0.01 µM) of 71.3%. For the same compound, the viability, T/C (second compound 0.03 µM, first compound 0.0316 µM) was 78.6%, the viability, T/C (second compound 0.03 µM, first compound 0.1 µM) was 73.1% and the viability, T/C (second compound 0.0949 µM, first compound 0.000316 µM) was 80.5%. For the same compound, the viability, T/C (second compound 0.0949 µM, first compound 0.001 µM) was 78.3%, the viability, T/C (second compound 0.0949 µM, first compound 0.00316 µM) was 63.5% and the viability, T/C (second compound 0.0949 µM, first compound 0.01 µM) was 69.8%. The viability, T/C (second compound 0.0949 µM, first compound 0.0316 µM) was 73.1%, the viability, T/C (second compound 0.0949 µM, first compound 0.1 µM) was 66% and the viability, T/C (second compound 0.3 µM, first compound 0.000316 µM) was 79.7%. For the same compound, the viability, T/C (second compound 0.3 µM, first compound 0.001 µM) was 64.8%, the viability, T/C (second compound 0.3 µM, first compound 0.00316 µM) was 65% and the viability, T/C (second compound 0.3 µM, first compound 0.01 µM) was 61%. For the same compound, the viability, T/C (second compound 0.3 µM, first compound 0.0316 µM) was 63.8%, the viability, T/C (second compound 0.3 µM, first compound 0.1 µM) was 62.5% and the viability, T/C (second compound 0.949 µM, first compound 0.000316 µM) was 78.3%. It also gave a viability, T/C (second compound 0.949 µM, first compound 0.001 µM) of 64.9%, a viability, T/C (second compound 0.949 µM, first compound 0.00316 µM) of 67.6% and a viability, T/C (second compound 0.949 µM, first compound 0.01 µM) of 60.7%. The viability, T/C (second compound 0.949 µM, first compound 0.0316 µM) was 60.2%, the viability, T/C (second compound 0.949 µM, first compound 0.1 µM) was 61.5% and the viability, T/C (second compound 3 µM, first compound 0.000316 µM) was 76.9%. It also gave a viability, T/C (second compound 3 µM, first compound 0.001 µM) of 65.9%, a viability, T/C (second compound 3 µM, first compound 0.00316 µM) of 62.4% and a viability, T/C (second compound 3 µM, first compound 0.01 µM) of 59.2%. It also gave a viability, T/C (second compound 3 µM, first compound 0.0316 µM) of 55.3% and a viability, T/C (second compound 3 µM, first compound 0.1 µM) of 67.5%.
For `Cc1nc(N2CCC3(CC2)COC(C)C3N)c(CO)nc1Sc1ccnc(N)c1Cl` (stereo not given) + CCN1C(C(=O)NC23CCC(C(=O)O)(CC2)CC3)C(c2cccc(Cl)c2F)C2(C(=O)Nc3cc(Cl)ccc32)C12CCCCC2, the IC50 (second compound 0.03 µM) was > 3000 nM, the IC50 (second compound 0.0949 µM) was > 3000 nM and the IC50 (second compound 0.3 µM) was > 3000 nM. For the same compound, the IC50 (second compound 0.949 µM) was > 3000 nM, the IC50 (second compound 3 µM) was > 3000 nM and the viability, T/C (second compound 0.03 µM, first compound 0.00949 µM) was 106%. It also gave a viability, T/C (second compound 0.03 µM, first compound 0.03 µM) of 104%, a viability, T/C (second compound 0.03 µM, first compound 0.0949 µM) of 92.1% and a viability, T/C (second compound 0.03 µM, first compound 0.3 µM) of 86.1%. It also gave a viability, T/C (second compound 0.03 µM, first compound 0.949 µM) of 90.4%, a viability, T/C (second compound 0.03 µM, first compound 3 µM) of 82.6% and a viability, T/C (second compound 0.0949 µM, first compound 0.00949 µM) of 92.8%. The viability, T/C (second compound 0.0949 µM, first compound 0.03 µM) was 89.5%, the viability, T/C (second compound 0.0949 µM, first compound 0.0949 µM) was 91.4% and the viability, T/C (second compound 0.0949 µM, first compound 0.3 µM) was 82.1%. For the same compound, the viability, T/C (second compound 0.0949 µM, first compound 0.949 µM) was 87.8%, the viability, T/C (second compound 0.0949 µM, first compound 3 µM) was 79.4% and the viability, T/C (second compound 0.3 µM, first compound 0.00949 µM) was 98.6%. For the same compound, the viability, T/C (second compound 0.3 µM, first compound 0.03 µM) was 104%, the viability, T/C (second compound 0.3 µM, first compound 0.0949 µM) was 106% and the viability, T/C (second compound 0.3 µM, first compound 0.3 µM) was 82.7%. For the same compound, the viability, T/C (second compound 0.3 µM, first compound 0.949 µM) was 92.9%, the viability, T/C (second compound 0.3 µM, first compound 3 µM) was 82.5% and the viability, T/C (second compound 0.949 µM, first compound 0.00949 µM) was 103%. For the same compound, the viability, T/C (second compound 0.949 µM, first compound 0.03 µM) was 93.9%, the viability, T/C (second compound 0.949 µM, first compound 0.0949 µM) was 97.4% and the viability, T/C (second compound 0.949 µM, first compound 0.3 µM) was 78.3%. The viability, T/C (second compound 0.949 µM, first compound 0.949 µM) was 73.3%, the viability, T/C (second compound 0.949 µM, first compound 3 µM) was 84.4% and the viability, T/C (second compound 3 µM, first compound 0.00949 µM) was 88.9%. For the same compound, the viability, T/C (second compound 3 µM, first compound 0.03 µM) was 95%, the viability, T/C (second compound 3 µM, first compound 0.0949 µM) was 96.5% and the viability, T/C (second compound 3 µM, first compound 0.3 µM) was 99.7%. It also gave a viability, T/C (second compound 3 µM, first compound 0.949 µM) of 79.9% and a viability, T/C (second compound 3 µM, first compound 3 µM) of 80.3%.
For `Cn1ncnc1[C@H]1c2n[nH]c(=O)c3cc(F)cc(c23)N[C@@H]1c1ccc(F)cc1` + Cc1c(S(C)(=O)=O)c(-c2cc(F)cc(N3CCN(c4ccc(NS(=O)(=O)c5ccc(NC(CCN6CCC(C(=O)OCCCP(=O)(O)O)CC6)CSc6ccccc6)c(S(=O)(=O)C(F)(F)F)c5)cc4)CC3)c2)c(-c2ccc(Cl)cc2)n1C(C)C, the IC50 (second compound 0.1 µM) was 3.84 nM, the IC50 (second compound 0.316 µM) was < 0.316 nM and the IC50 (second compound 1 µM) was < 0.316 nM. For the same compound, the IC50 (second compound 3.16 µM) was < 0.316 nM, the IC50 (second compound 10 µM) was < 0.316 nM and the viability, T/C (second compound 0.1 µM, first compound 0.000316 µM) was 85.9%. It also gave a viability, T/C (second compound 0.1 µM, first compound 0.001 µM) of 83.2%, a viability, T/C (second compound 0.1 µM, first compound 0.00316 µM) of 54.8% and a viability, T/C (second compound 0.1 µM, first compound 0.01 µM) of 21.9%. For the same compound, the viability, T/C (second compound 0.1 µM, first compound 0.0316 µM) was 8.37%, the viability, T/C (second compound 0.1 µM, first compound 0.1 µM) was 5.48% and the viability, T/C (second compound 0.316 µM, first compound 0.000316 µM) was 46.7%. For the same compound, the viability, T/C (second compound 0.316 µM, first compound 0.001 µM) was 42.7%, the viability, T/C (second compound 0.316 µM, first compound 0.00316 µM) was 31.7% and the viability, T/C (second compound 0.316 µM, first compound 0.01 µM) was 5.82%. The viability, T/C (second compound 0.316 µM, first compound 0.0316 µM) was 3.42%, the viability, T/C (second compound 0.316 µM, first compound 0.1 µM) was 3.86% and the viability, T/C (second compound 1 µM, first compound 0.000316 µM) was 12.5%. It also gave a viability, T/C (second compound 1 µM, first compound 0.001 µM) of 10.4%, a viability, T/C (second compound 1 µM, first compound 0.00316 µM) of 6.37% and a viability, T/C (second compound 1 µM, first compound 0.01 µM) of 3.13%. It also gave a viability, T/C (second compound 1 µM, first compound 0.0316 µM) of 2.7%, a viability, T/C (second compound 1 µM, first compound 0.1 µM) of 3.15% and a viability, T/C (second compound 3.16 µM, first compound 0.000316 µM) of 3.13%. The viability, T/C (second compound 3.16 µM, first compound 0.001 µM) was 2.74%, the viability, T/C (second compound 3.16 µM, first compound 0.00316 µM) was 2.64% and the viability, T/C (second compound 3.16 µM, first compound 0.01 µM) was 2.34%. The viability, T/C (second compound 3.16 µM, first compound 0.0316 µM) was 3.42%, the viability, T/C (second compound 3.16 µM, first compound 0.1 µM) was 2.69% and the viability, T/C (second compound 10 µM, first compound 0.000316 µM) was 2.53%. The viability, T/C (second compound 10 µM, first compound 0.001 µM) was 2.63%, the viability, T/C (second compound 10 µM, first compound 0.00316 µM) was 2.54% and the viability, T/C (second compound 10 µM, first compound 0.01 µM) was 2.98%. The viability, T/C (second compound 10 µM, first compound 0.0316 µM) was 3.14% and the viability, T/C (second compound 10 µM, first compound 0.1 µM) was 2.76%.
